Experimental data reported in ChEMBL document CHEMBL2331312, “Dimerized linear mimics of a natural cyclopeptide (TMC-95A) are potent noncovalent inhibitors of the eukaryotic 20S proteasome” (J Med Chem, 2013).
pIC50, pKi: −log10 of the molar value. Active and inactive are the calls of the source. No cut-off for these calls is given here.

Legend:
[1] = biological target: T1, Proteasome Macropain subunit MB1 (Homo sapiens, UniProt P28074)
T1 sequence (P28074 whole entry): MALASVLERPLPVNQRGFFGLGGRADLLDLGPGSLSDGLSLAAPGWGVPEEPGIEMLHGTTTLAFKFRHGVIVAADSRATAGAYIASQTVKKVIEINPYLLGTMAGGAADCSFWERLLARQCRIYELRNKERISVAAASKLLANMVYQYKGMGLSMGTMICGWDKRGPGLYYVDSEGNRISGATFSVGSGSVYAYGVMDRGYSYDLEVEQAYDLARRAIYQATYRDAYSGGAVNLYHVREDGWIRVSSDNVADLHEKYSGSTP
Description: Inhibition of chymotrypsin-like activity of proteasome beta-5 subunit in HEK293 cells using Suc-LLVY-Glo as substrate incubated for 2 hrs prior to substrate addition measured after 10 mins by cell-based proteasome-Glo beta5 assay

[2] = biological target: T1, Proteasome Macropain subunit MB1; remark: listed apart in the source
Description: (§2) Inhibition of chymotrypsin-like activity of human constitutive 20s proteasome beta-5 subunit using Suc-LLVY-AMC as substrate assessed as remaining activity incubated for 15 mins prior to substrate addition measured after 45 mins by fluorescence assay

[3] = biological target: T1, Proteasome Macropain subunit MB1; remark: listed apart in the source
Description: Competitive inhibition of chymotrypsin-like activity of human constitutive 20s proteasome beta-5 subunit using Suc-LLVY-AMC as substrate assessed as inhibition constant for dissociation of enzyme-inhibitor complex incubated for 15 mins prior to substrate addition measured after 45 mins by fluorescence assay

[4] = biological target: T2, Proteasome component C5 (Homo sapiens) (UniProt P20618); experiment: Inhibition of postacid activity of 20s proteasome beta-1 subunit in HEK293 cells using Z-nLPnLD-Glo as substrate at 10 uM incubated for 2 hrs prior to substrate addition measured after 10 mins by cell-based proteasome-Glo beta1 assay
T2 sequence (whole entry): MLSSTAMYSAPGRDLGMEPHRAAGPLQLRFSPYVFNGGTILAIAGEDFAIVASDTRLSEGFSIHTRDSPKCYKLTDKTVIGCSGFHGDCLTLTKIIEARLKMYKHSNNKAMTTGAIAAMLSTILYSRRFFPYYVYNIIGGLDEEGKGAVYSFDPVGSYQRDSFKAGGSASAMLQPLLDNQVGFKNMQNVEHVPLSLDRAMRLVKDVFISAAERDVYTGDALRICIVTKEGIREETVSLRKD

[5] = biological target: T3, Calpain-1 catalytic subunit (Homo sapiens) (UniProt P07384); experiment: Inhibition of human calpain 1 using Suc-LLVY-AMC as substrate assessed as remaining enzyme activity at 20 uM incubated for 5 mins prior to substrate addition measured for 30 mins by fluorescence assay
T3 sequence (whole entry): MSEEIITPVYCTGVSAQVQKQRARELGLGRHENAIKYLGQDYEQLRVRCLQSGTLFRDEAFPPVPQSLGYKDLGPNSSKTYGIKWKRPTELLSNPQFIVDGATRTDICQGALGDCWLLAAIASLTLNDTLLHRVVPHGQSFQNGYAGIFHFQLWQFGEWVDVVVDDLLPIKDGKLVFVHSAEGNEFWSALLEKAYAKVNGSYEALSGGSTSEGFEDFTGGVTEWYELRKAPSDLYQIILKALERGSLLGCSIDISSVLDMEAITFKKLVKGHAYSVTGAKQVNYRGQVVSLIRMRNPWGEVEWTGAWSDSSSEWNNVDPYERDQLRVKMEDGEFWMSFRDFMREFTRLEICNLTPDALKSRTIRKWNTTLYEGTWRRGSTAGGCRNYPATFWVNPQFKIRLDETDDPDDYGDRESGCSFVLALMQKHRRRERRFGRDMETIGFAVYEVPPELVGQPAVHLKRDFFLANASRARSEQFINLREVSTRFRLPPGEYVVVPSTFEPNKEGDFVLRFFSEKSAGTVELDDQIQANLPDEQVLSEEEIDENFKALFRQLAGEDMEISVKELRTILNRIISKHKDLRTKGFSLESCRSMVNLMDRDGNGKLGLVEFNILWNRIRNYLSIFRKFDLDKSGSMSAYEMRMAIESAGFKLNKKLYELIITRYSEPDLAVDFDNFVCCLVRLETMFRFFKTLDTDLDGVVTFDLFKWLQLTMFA

[6] = biological target: Cathepsin B (Homo sapiens) (UniProt P07858); experiment: Inhibition of human cathepsin B using Suc-LLVY-AMC as substrate assessed as remaining enzyme activity at 20 uM incubated for 15 mins prior to substrate addition measured for 30 mins by fluorescence assay
[7] = biological target: T1, Proteasome Macropain subunit MB1; experiment: (§1) Mixed type inhibition of chymotrypsin-like activity of human constitutive 20s proteasome beta-5 subunit using Suc-LLVY-AMC as substrate assessed as inhibition constant for dissociation of enzyme-inhibitor complex incubated for 15 mins prior to substrate addition measured after 45 mins by fluorescence assay
[8] = biological target: T1, Proteasome Macropain subunit MB1; experiment: as §1, with “enzyme-substrate-inhibitor” for “enzyme-inhibitor”
[9] = biological target: T2, Proteasome component C5 (Homo sapiens); experiment: Inhibition of postacid activity of 20s proteasome beta-1 subunit in HEK293 cells using Z-nLPnLD-Glo as substrate at 20 uM incubated for 2 hrs prior to substrate addition measured after 10 mins by cell-based proteasome-Glo beta1 assay
[10] = Half life of the compound in RPMI culture medium in presence of 20% fetal calf serum at 37 degC by HPLC analysis; assay type: physicochemical; conditions: cattle, RPMI culture medium with 20% fetal calf serum
[11] = biological target: T4, Proteasome Macropain subunit PRE2 (Saccharomyces cerevisiae S288c, UniProt P30656)
T4 sequence (P30656 whole entry): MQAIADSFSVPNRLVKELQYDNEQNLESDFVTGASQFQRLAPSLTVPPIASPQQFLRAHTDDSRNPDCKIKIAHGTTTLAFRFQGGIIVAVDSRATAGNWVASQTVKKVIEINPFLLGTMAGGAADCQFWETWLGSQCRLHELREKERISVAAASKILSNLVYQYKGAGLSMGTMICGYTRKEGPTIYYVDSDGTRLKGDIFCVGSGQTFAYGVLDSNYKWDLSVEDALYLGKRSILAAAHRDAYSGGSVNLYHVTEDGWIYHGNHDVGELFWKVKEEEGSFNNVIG
Description: Inhibition of chymotrypsin-like activity of yeast 20S proteasome beta-5 subunit using Suc-LLVY-AMC as substrate measured up to 45 mins by fluorescence assay

[12] = biological target: T1, Proteasome Macropain subunit MB1; remark: listed apart in the source
Description: as §2

[13] = biological target: T5, Proteasome component C5 (Homo sapiens, UniProt P20618)
T5 sequence (P20618 whole entry): T2 sequence (whole entry)
Description: Inhibition of postacid activity of human constitutive 20s proteasome beta-1 subunit using Z-LLE-betaNA as substrate assessed as remaining activity incubated for 15 mins prior to substrate addition measured after 45 mins by fluorescence assay

[14] = biological target: Proteasome Macropain subunit (Homo sapiens, UniProt P49721); experiment: Inhibition of trypsin-like activity of human constitutive 20s proteasome beta-2 subunit using Boc-LRR-AMC as substrate assessed as remaining activity incubated for 15 mins prior to substrate addition measured after 45 mins by fluorescence assay
Proteasome Macropain subunit, sequence (P49721 whole entry): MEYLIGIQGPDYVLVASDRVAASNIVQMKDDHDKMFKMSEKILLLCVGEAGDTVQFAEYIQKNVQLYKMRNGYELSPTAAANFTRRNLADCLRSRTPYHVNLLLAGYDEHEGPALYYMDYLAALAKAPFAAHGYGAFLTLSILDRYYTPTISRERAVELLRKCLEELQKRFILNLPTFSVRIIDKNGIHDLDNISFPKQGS

[15] = biological target: T1, Proteasome Macropain subunit MB1; experiment: as §1, with “Noncompetitive” for “Mixed type”, “enzyme-substrate-inhibitor” for “enzyme-inhibitor”
[16] = biological target: T1, Proteasome Macropain subunit MB1; experiment: as §1, with “Noncompetitive” for “Mixed type”

pIC50 [1]	pIC50 [2]	pKi [3]	inhibition [4] [%]	inhibition [5]	inhibition [6]	pKi [7]	pKi [8]	inhibition [9] [%]	half-life [10] [h]	pIC50 [11]	IC50 [12]	IC50 [13]	IC50 [14]	pKi [15]	pKi [16]	SMILES
6.32	7.72	7.97	30	inactive	inactive											C[C@H](NC(=O)[C@H](Cc1ccc(OCc2ccccc2)cc1)NC(=O)CCCCCNC(=O)CCCCCNC(=O)CCCCCNC(=O)CCCCC(=O)NCCCCCC(=O)NCCCCCC(=O)NCCCCCC(=O)N[C@@H](Cc1ccc(OCc2ccccc2)cc1)C(=O)N[C@@H](C)C(=O)N[C@@H](C[C@]1(O)C(=O)Nc2ccccc21)C(=O)NCc1ccccc1)C(=O)N[C@@H](C[C@]1(O)C(=O)Nc2ccccc21)C(=O)NCc1ccccc1
6.33	7.64	7.94	25	inactive	inactive											C[C@H](NC(=O)[C@H](Cc1ccc(OCc2ccccc2)cc1)NC(=O)CCCCCNC(=O)CCCCCNC(=O)CCCCCNC(=O)CCCCCNC(=O)CCCCCNC(=O)CCCCC(=O)N[C@@H](Cc1ccc(OCc2ccccc2)cc1)C(=O)N[C@@H](C)C(=O)N[C@@H](C[C@]1(O)C(=O)Nc2ccccc21)C(=O)NCc1ccccc1)C(=O)N[C@@H](C[C@]1(O)C(=O)Nc2ccccc21)C(=O)NCc1ccccc1
	6.15			inactive	inactive	7.17	6.70									C[C@H](NC(=O)[C@H](Cc1ccc(OCc2ccccc2)cc1)NC(=O)CCCCCNC(=O)CCCCCNC(=O)CCCCCNC(=O)CCCCCNC(=O)OC(C)(C)C)C(=O)N[C@@H](C[C@]1(O)C(=O)Nc2ccccc21)C(=O)NCc1ccccc1
6.27	7.59	7.99		inactive	inactive			40	50							C[C@H](NC(=O)[C@H](Cc1ccc(OCc2ccccc2)cc1)NC(=O)CCCCCNC(=O)CCCCCNC(=O)CCCCCNC(=O)CCCCC(=O)N[C@@H](Cc1ccc(OCc2ccccc2)cc1)C(=O)N[C@@H](C)C(=O)N[C@@H](C[C@]1(O)C(=O)Nc2ccccc21)C(=O)NCc1ccccc1)C(=O)N[C@@H](C[C@]1(O)C(=O)Nc2ccccc21)C(=O)NCc1ccccc1
	7.70	8.22		inactive	inactive											C[C@H](NC(=O)[C@H](Cc1ccc(OCc2ccccc2)cc1)NC(=O)CCCCCNC(=O)CCCCCNC(=O)CCCCCNC(=O)CCCCCNC(=O)CCCCC(=O)NCCCCCC(=O)NCCCCCC(=O)NCCCCCC(=O)NCCCCCC(=O)N[C@@H](Cc1ccc(OCc2ccccc2)cc1)C(=O)N[C@@H](C)C(=O)N[C@@H](C[C@]1(O)C(=O)Nc2ccccc21)C(=O)NCc1ccccc1)C(=O)N[C@@H](C[C@]1(O)C(=O)Nc2ccccc21)C(=O)NCc1ccccc1
5.10	5.50			inactive	inactive	5.61	5.30		50	5.82						C[C@H](NC(=O)[C@H](Cc1ccc(OCc2ccccc2)cc1)NC(=O)OC(C)(C)C)C(=O)N[C@@H](C[C@]1(O)C(=O)Nc2ccccc21)C(=O)NCc1ccccc1
				inactive	inactive						Not Active	Not Active	Not Active			COC(=O)CCCCCNC(=O)CCCCCNC(=O)CCCCCNC(=O)CCCCC(=O)OC
6.12	7.59	7.97	37	inactive	inactive											C[C@H](NC(=O)[C@H](Cc1ccc(OCc2ccccc2)cc1)NC(=O)CCCCCNC(=O)CCCCCNC(=O)CCCCCNC(=O)CCCCCNC(=O)CCCCC(=O)N[C@@H](Cc1ccc(OCc2ccccc2)cc1)C(=O)N[C@@H](C)C(=O)N[C@@H](C[C@]1(O)C(=O)Nc2ccccc21)C(=O)NCc1ccccc1)C(=O)N[C@@H](C[C@]1(O)C(=O)Nc2ccccc21)C(=O)NCc1ccccc1
	4.94			inactive	inactive					5.03			Not Active	4.61	4.61	C[C@H](NC(=O)[C@@H](N)Cc1ccc(OCc2ccccc2)cc1)C(=O)N[C@@H](C[C@]1(O)C(=O)Nc2ccccc21)C(=O)NCc1ccccc1
				inactive	inactive						Not Active	Not Active	Not Active			COC(=O)CCCCCNC(=O)CCCCCNC(=O)CCCCCNC(=O)CCCCCNC(=O)CCCCCNC(=O)CCCCCNC(=O)OC(C)(C)C
6.60	6.34			inactive	inactive	7.00	6.50		19							C[C@H](NC(=O)[C@H](Cc1ccc(OCc2ccccc2)cc1)NC(=O)CCCCCNC(=O)CCCCCNC(=O)CCCCCNC(=O)OC(C)(C)C)C(=O)N[C@@H](C[C@]1(O)C(=O)Nc2ccccc21)C(=O)NCc1ccccc1
	8.27	8.64														C/C=C\NC(=O)[C@H]1NC(=O)[C@H](CC(N)=O)CC(=O)[C@@H](NC(=O)C(=O)[C@@H](C)CC)Cc2ccc(O)c(c2)-c2cccc3c2NC(=O)[C@@]3(O)[C@@H]1O
